Measured values published in patent publication US11090304B2 (Amgen Inc., priority 2018, dated 2021).
Like-named read-outs stand apart in the source and are kept apart here.

Tests used:
[1] = molecular target: GDP-bound KRAS protein (aa 1-169), containing both G12C and C118A amino acid substitutions (Homo sapiens, UniProt P01116, C118A/G12C); assay: Coupled nucleotide exchange assay (SOS-mediated, AlphaScreen); type: biochemical; conditions: 5 min compound pre-incubation
[2] = test system: Phosphorylation of ERK1/2 in MIA PaCa-2 cells; assay: Phospho-ERK1/2 MSD assay in MIA PaCa-2 cells; type: cell-based; conditions: Homo sapiens, read-out: p-ERK IC50 (2 h; MIA PaCa-2), 2 h compound treatment
In short: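 IC50 comes from a 4-parameter logistic fit of MSD phospho-ERK1/2 signal in lysates. Before lysis, MIA PaCa-2 or A549 cells were exposed to titrated compound for 2 or 4 h at 37 °C, followed by a 10 min 10 ng/mL EGF stimulus.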

GDP-bound KRAS protein (aa 1-169), containing both G12C and C118A amino acid substitutions, sequence (P01116 1-169 isoform P01116-2 G12C/C118A): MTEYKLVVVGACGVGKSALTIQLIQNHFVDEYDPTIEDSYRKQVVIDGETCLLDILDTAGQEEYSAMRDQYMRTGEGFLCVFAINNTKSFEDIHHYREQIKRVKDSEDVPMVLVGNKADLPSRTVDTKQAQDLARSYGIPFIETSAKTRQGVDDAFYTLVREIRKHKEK

Coupled exchange IC50 (5 min) [1]	IC50 ([2]; MIA PaCa-2, 2 h) [µM]	SMILES	IC50 ([1]; read-out: Coupled exchange IC50 (5 min)) [µM]	IC50 [2] [µM]
0.133 | nda μM	0.163	C=CC(=O)N1CCN(c2nc(=O)n(-c3c(C4CC4)ncnc3C3CC3)c3nc(-c4c(O)cccc4F)c(F)cc23)[C@@H](C)C1 [Example 59-4, 1-(4,6-dicyclopropyl-5-pyrimidinyl)-6-fluoro-7-(2-fluoro-6-hydroxyphenyl)-4-((2S)-2-methyl-4-(2-propenoyl)-1-piperazinyl)pyrido[2,3-d]pyrimidin-2(1H)-one]		
0.932 | nda μM	0.659	C=CC(=O)N1CCN(c2nc(=O)n(-c3nccnc3C3CC3)c3nc(-c4c(O)cccc4F)c(F)cc23)[C@@H](C)C1 [Example 59-6, 1-(3-cyclopropyl-2-pyrazinyl)-6-fluoro-7-(2-fluoro-6-hydroxyphenyl)-4-((2S)-2-methyl-4-(2-propenoyl)-1-piperazinyl)pyrido[2,3-d]pyrimidin-2(1H)-one]		
0.422 | nda μM	0.204	C=CC(=O)N1CCN(c2nc(=O)n(-c3ncccc3C3CC3)c3nc(-c4ccccc4F)c(Cl)cc23)[C@@H](C)C1 [Example 60-1, 6-Chloro-1-(3-cyclopropyl-2-pyridinyl)-7-(2-fluorophenyl)-4-((2S)-2-methyl-4-(2-propenoyl)-1-piperazinyl)pyrido[2,3-d]pyrimidin-2(1H)-one]		
0.484 | nda μM	1.6	C=CC(=O)N1CCN(c2nc(=O)n(C3CCC34CCCC4)c3nc(-c4c(O)cccc4F)c(Cl)cc23)[C@@H](C)C1 (stereo partly drawn) [Example 60-9, 6-chloro-7-(2-fluoro-6-hydroxyphenyl)-4-((2S)-2-methyl-4-(2-propenoyl)-1-piperazinyl)-1-(spiro[3.4]octan-1-yl)pyrido[2,3-d]pyrimidin-2(1H)-one]		
0.328 | nda μM	0.156	C=CC(=O)N1CCN(c2nc(=O)n(-c3nccnc3C3CC3)c3nc(-c4ccccc4F)c(Cl)cc23)[C@@H](C)C1 [Example 60-10, 6-chloro-1-(3-cyclopropyl-2-pyrazinyl)-7-(2-fluorophenyl)-4-((2S)-2-methyl-4-(2-propenoyl)-1-piperazinyl)pyrido[2,3-d]pyrimidin-2(1H)-one]		
0.137 | nda μM	0.156	C=CC(=O)N1CCN(c2nc(=O)n(-c3c(OC)cccc3C(C)C)c3nc(-c4ccccc4F)c(Cl)cc23)[C@@H](C)C1 [Example 60-19, 6-chloro-7-(2-fluorophenyl)-1-(2-methoxy-6-(2-propanyl)phenyl)-4-((2S)-2-methyl-4-(2-propenoyl)-1-piperazinyl)pyrido[2,3-d]pyrimidin-2(1H)-one]		
0.053 | nda μM	0.062	C=CC(=O)N1CCN(c2nc(=O)n(-c3c(C#N)cccc3C(C)C)c3nc(-c4ccccc4F)c(Cl)cc23)[C@@H](C)C1 [Example 60-20, 2-(6-chloro-7-(2-fluorophenyl)-4-((2S)-2-methyl-4-(2-propenoyl)-1-piperazinyl)-2-oxopyrido[2,3-d]pyrimidin-1(2H)-yl)-3-(2-propanyl)benzonitrile]		
0.35 | nda μM	0.334	C=CC(=O)N1CCN(c2nc(=O)n(-c3scnc3CC)c3nc(-c4ccccc4F)c(Cl)cc23)[C@@H](C)C1 [Example 60-21, 6-chloro-1-(4-ethyl-1,3-thiazol-5-yl)-7-(2-fluorophenyl)-4-((2S)-2-methyl-4-(2-propenoyl)-1-piperazinyl)pyrido[2,3-d]pyrimidin-2(1H)-one]		
0.159 | nda μM	0.433	C=CC(=O)N1CCN(c2nc(=O)n(-c3scnc3CC)c3nc(-c4c(O)cccc4F)c(Cl)cc23)[C@@H](C)C1 [Example 60-22, 6-chloro-1-(4-ethyl-1,3-thiazol-5-yl)-7-(2-fluoro-6-hydroxyphenyl)-4-((2S)-2-methyl-4-(2-propenoyl)-1-piperazinyl)pyrido[2,3-d]pyrimidin-2(1H)-one]		
0.101 | nda μM	0.045	C=CC(=O)N1CCN(c2nc(=O)n(-c3ncccc3C(C)C)c3nc(-c4ccccc4F)c(Cl)cc23)[C@@H](C)C1 [Example 60-28, 6-chloro-7-(2-fluorophenyl)-4-((2S)-2-methyl-4-(2-propenoyl)-1-piperazinyl)-1-(3-(2-propanyl)-2-pyridinyl)pyrido[2,3-d]pyrimidin-2(1H)-one]		
		C=CC(=O)N1CCN(c2nc(=O)n(-c3c(C4CC4)ncnc3C3CC3)c3nc(-c4c(O)cccc4F)c(Cl)cc23)[C@@H](C)C1 [Example 60-29, 6-chloro-1-(4,6-dicyclopropyl-5-pyrimidinyl)-7-(2-fluoro-6-hydroxyphenyl)-4-((2S)-2-methyl-4-(2-propenoyl)-1-piperazinyl)pyrido[2,3-d]pyrimidin-2(1H)-one]	0.034	0.036
0.218 | nda μM	0.2	C=CC(=O)N1CCN(c2nc(=O)n(-c3c(C)ncnc3C3CC3)c3nc(-c4ccccc4F)c(Cl)cc23)[C@@H](C)C1 [Example 60-30, 6-chloro-1-(4-cyclopropyl-6-methyl-5-pyrimidinyl)-7-(2-fluorophenyl)-4-((2S)-2-methyl-4-(2-propenoyl)-1-piperazinyl)pyrido[2,3-d]pyrimidin-2(1H)-one]		
0.111 | nda μM	0.214	C=CC(=O)N1CCN(c2nc(=O)n(-c3c(C)cccc3C(C)C)c3nc(-c4c(O)cccc4Cl)c(F)cc23)[C@@H](C)C1 [Example 68-1, 7-(2-Chloro-6-hydroxyphenyl)-6-fluoro-1-(2-methyl-6-(2-propanyl)phenyl)-4-((2S)-2-methyl-4-(2-propenoyl)-1-piperazinyl)pyrido[2,3-d]pyrimidin-2(1H)-one]		
0.225 | nda μM	0.225	C=CC(=O)N1CCN(c2nc(=O)n(-c3ccccc3C(C)C)c3nc(-c4nc(N)ccc4Cl)c(Cl)cc23)[C@@H](C)C1 [Example 70-1, 7-(6-Amino-3-chloro-2-pyrindinyl)-6-chloro-4-((2S)-2-methyl-4-(2-propenoyl)-1-piperazinyl)-1-(2-(2-propanyl)phenyl)pyrido[2,3-d]pyrimidin-2(1H)-one]		
0.184 | nda μM	0.213	C=CC(=O)N1CCN(c2nc(=O)n(-c3ccccc3C(C)C)c3nc(-c4nc(N)cc5ccccc45)c(Cl)cc23)[C@@H](C)C1 [Example 70-2, 7-(3-amino-1-isoquinolinyl)-6-chloro-4-((2S)-2-methyl-4-(2-propenoyl)-1-piperazinyl)-1-(2-(2-propanyl)phenyl)pyrido[2,3-d]pyrimidin-2(1H)-one]		
0.125 | nda μM	0.206	C=CC(=O)N1CCN(c2nc(=O)n(-c3c(C)cccc3C(C)C)c3nc(-c4nc(N)ccc4Cl)c(Cl)cc23)[C@@H](C)C1 [Example 70-3, 7-(6-amino-3-chloro-2-pyridinyl)-6-chloro-1-(2-methyl-6-(2-propanyl)phenyl)-4-((2S)-2-methyl-4-(2-propenoyl)-1-piperazinyl)pyrido[2,3-d]pyrimidin-2(1H)-one]		
0.398 | nda μM	0.28	C=CC(=O)N1CCN(c2nc(=O)n(-c3c(C)cccc3C(C)C)c3nc(-c4nc(N)ccc4F)c(Cl)cc23)[C@@H](C)C1 [Example 70-4, 7-(6-amino-3-fluoro-2-pyridinyl)-6-chloro-1-(2-methyl-6-(2-propanyl)phenyl)-4-((2S)-2-methyl-4-(2-propenoyl)-1-piperazinyl)pyrido[2,3-d]pyrimidin-2(1H)-one]		
0.951 | nda μM	0.621	C=CC(=O)N1CCN(c2nc(=O)n(-c3ccccc3C(C)C)c3nc(-c4ccccc4F)c(C)cc23)[C@@H](C)C1 [Example 74-1, 7-(2-Fluorophenyl)-6-methyl-4-((2S)-2-methyl-4-(2-propenoyl)-1-piperazinyl)-1-(2-(2-propanyl)phenyl)pyrido[2,3-d]pyrimidin-2(1H)-one]		
0.228 | nda μM	0.3	C=CC(=O)N1CCN(c2nc(=O)n(-c3c(C)ccnc3C(C)C)c3nc(-c4ccccc4F)c(C)cc23)[C@@H](C)C1 [Example 74-2, 7-(2-fluorophenyl)-6-methyl-1-(4-methyl-2-(2-propanyl)-3-pyridinyl)-4-((2S)-2-methyl-4-(2-propenoyl)-1-piperazinyl)pyrido[2,3-d]pyrimidin-2(1H)-one]		
0.136 | nda μM	0.347	C=CC(=O)N1CCN(c2nc(=O)n(-c3c(C)ccnc3C(C)C)c3nc(-c4c(O)cccc4F)c(C)cc23)[C@@H](C)C1 [Example 74-3, 7-(2-fluoro-6-hydroxyphenyl)-6-methyl-1-(4-methyl-2-(2-propanyl)-3-pyridinyl)-4-((2S)-2-methyl-4-(2-propenoyl)-1-piperazinyl)pyrido[2,3-d]pyrimidin-2(1H)-one]		
0.08 | nda μM	0.052	C=CC(=O)N1CCN(c2nc(=O)n(-c3c(C)cc(CN(C)C)cc3C(C)C)c3nc(-c4ccccc4F)c(Cl)cc23)[C@@H](C)C1 [Example 80-1, 6-Chloro-1-(4-((dimethylamino)methyl)-2-methyl-6-(2-propanyl)phenyl)-7-(2-fluorophenyl)-4-((2S)-2-methyl-4-(2-propenoyl)-1-piperazinyl)pyrido[2,3-d]pyrimidin-2(1H)-one]		
3.95 | nda μM	4.3	C=CC(=O)N1CCN(c2nc(CN(C)C)c(-c3ccccc3C(C)C)c3nc(-c4ccccc4F)c(Cl)cc23)[C@@H](C)C1 [Example 86-1, 1-((3S)-4-(3-Chloro-7-((dimethylamino)methyl)-2-(2-fluorophenyl)-8-(2-isopropylphenyl)-1,6-naphthyridin-5-yl)-3-methylpiperazin-1-yl)prop-2-en-1-one]		
